From publication PMC7349657, “Efficient Targeted Degradation via Reversible and Irreversible Covalent PROTACs” (Journal of the American Chemical Society, 2020)

What was measured:
BTK [1] = biological target: T1, BTK (Homo sapiens, UniProt Q06187); experiment: Library screen of BTK abundance by Western blot in K562 or Mino cells; assay type: cell-based; parameters: endogenous in cells; host or cells: Mino (ATCC CRL-3000), Ramos (ATCC CRL-1596), K562 (NCI-60); conditions: 1 μM compound, 24 h
Protocol: We incubated K562 or Mino cells with 1 μM of the compounds for 24 h and measured the abundance of BTK by Western blot (Supporting Figure 1). […] On the basis of compound RC-1 we synthesized additional compounds (Figure 1), RC-2 with a CH2 group replacing the oxygen nearest the β-carbon, their analogous acrylamides IR-1 and IR-2, and the noncovalent analogue NC-1. We also synthesized the cyanoacrylamide RC-3 (Figure 1), replacing the Cα hydrogens with methyl groups. Similar dimethylated cyanoacrylamides were reported to have improved cellular permeability.[34]
Ramos (ATCC, CRL-1596), Mino (ATCC, CRL-3000), or K562 (NCI-60) cell lines were counted and diluted to 10^6 cell/mL, using 1 mL per well in a 24-well plate, and U2OS (ATCC HTB-96) cells overexpressing human BTK WT or C481S mutant were grown using 2 mL in a six-well plate (see Supporting Information). […] Lysates were prepared as previously described,[29] and samples were measured for total protein quantification by bicinchoninic acid (BCA) assay (#23225 ThermoFisher Scientific) supplemented with 4× loading buffer including 20 mM DTT, heated to 70 °C for 10 min, loaded into 4% SDS-PAGE gel, run for 45 min at 140 mV, then transferred into a nitrocellulose membrane (Biorad) using a Trans-Blot Turbo transfer system (Biorad). […]

BTK [2] = biological target: T1, BTK; experiment: Time course of BTK degradation in Ramos and Mino cells; assay type: cell-based; parameters: endogenous in cells; host or cells: Mino (ATCC CRL-3000), Ramos (ATCC CRL-1596), K562 (NCI-60); conditions: 100 nM PROTAC, Ramos cells (RC-3: Mino cells)
Protocol: We followed the rate of BTK degradation facilitated by this compound series via a time course experiment in Ramos and Mino cells (Supporting Figure 3). The rates of degradation correlated well with the DC50 values observed after 24 h, with NC-1, IR-1, IR-2, and RC-3 degrading BTK within 2–4 h, while RC-2 and RC-1 required 6–24 h to reach maximum degradation.
(§1) Ramos (ATCC, CRL-1596), Mino (ATCC, CRL-3000), or K562 (NCI-60) cell lines were counted and diluted to 10^6 cell/mL, using 1 mL per well in a 24-well plate, and U2OS (ATCC HTB-96) cells overexpressing human BTK WT or C481S mutant were grown using 2 mL in a six-well plate (see Supporting Information). Cells were incubated with 1% DMSO or compound in indicated concentrations for 24 h unless indicated differently, or cells were left untreated. Lysates were prepared as previously described,[29] and samples were measured for total protein quantification by bicinchoninic acid (BCA) assay (#23225 ThermoFisher Scientific) supplemented with 4× loading buffer including 20 mM DTT, heated to 70 °C for 10 min, loaded into 4% SDS-PAGE gel, run for 45 min at 140 mV, then transferred into a nitrocellulose membrane (Biorad) using a Trans-Blot Turbo transfer system (Biorad). The membrane was stained with Ponceau (Sigma) to validate transfer for 10 min in gentle agitation then destained for 1 h with MQ water. The membrane was blocked with Licor blocking buffer (LIC927-70001) for 1 h, washed three times for 5 min with TBS-T, incubated with primary antibody BTK (D3H5) rabbit mAb (CST; 8547 S) overnight (16 h) at 4 °C, washed three times for 5 min with TBS-T, and incubated with primary antibody against β-actin (CST; 3700) for 1 h at 25 °C. Membrane was washed three times for 5 min with TBS-T, incubated with fluorescent secondary antibodies anti-mouse IgG Alexa Fluor 647 (CST: 4410S) and anti-rabbit-IgG IRDye 800(LICOR: 926-32211) for 1 h, then washed three times for 5 min with TBS-T, dried, and immediately imaged and analyzed using Licor Odyssey CLx. Prism (GraphPad) software was used to calculate degradation levels. We used second-order polynomial fits to estimate DC50 and Dmax values.
Supplementary Figure 3: BTK degradation time dependency.
Ramos (PI3I, RC-1, I R-1, R C-2, I R-2, NC-1) or Mino ( RC-3) cells were treated with 100 nM of PROTAC or DMSO for indicated times, subsequently harvested for BTK levels measurement via western blot.
(1 picture or pasted object on this page, not shown here)

BTK [3] = biological target: T1, BTK; experiment: BTK degradation in Mino cells, dose-response Western blot; assay type: cell-based; parameters: endogenous in cells; host or cells: Mino (ATCC CRL-3000), Ramos (ATCC CRL-1596), K562 (NCI-60); conditions: MINO, 24 h, read-out: Dmax (maximal degradation)
Protocol: We evaluated the ability of the compounds to induce degradation of BTK in human cell lines. We incubated Mino cells with the compounds and followed BTK levels after 24 h by Western blot (Figure 2, Supporting Figure 2). […] The irreversible acrylamides IR-1 and IR-2 and the cyanoacrylamide RC-3 followed closely with DC50’s under 10 nM and Dmax near 90%. […] We conducted metabolomics studies to estimate if cellular penetration and stability may contribute to the relative potencies (Supporting Table 2). NC-1 and RC-3 reached an effective concentration that was ∼2 times higher than IR-2 and ∼10 times higher than RC-2. Therefore, the lower potency of RC-2 can at least in part be explained by lower permeability or stability.
Figure 2 Efficient BTK degradation in cells. (A) Western blot evaluation of BTK levels in Mino cells in response to various concentrations of RC-2, IR-2, NC-1, and RC-3, after 24 h of incubation. (B) Quantification of BTK levels in (A) by normalization to the β-actin house-keeping gene in Mino cells. DC50 and Dmax were calculated by fitting the data to a second-order polynomial using Prism software. (C) Summary of the DC50 and Dmax values for the PROTACs in Mino cells described in (A) and Supporting Figure 2. TEXT PRINTED IN THE PICTURE: (C) NC-1: DC50 (nM): 2.2; Dmax (%): 97 | (C) IR-1: DC50 (nM): 8.6; Dmax (%): 91 | (C) IR-2: DC50 (nM): 1.9; Dmax (%): 88 | (C) RC-1: DC50 (nM): 10; Dmax (%): 68 | (C) RC-2: DC50 (nM): 35; Dmax (%): 66 | (C) RC-3: DC50 (nM): 6; Dmax (%): 85
as §1

wild-type BTK = wild-type BTK (Homo sapiens, UniProt Q06187); experiment: In vitro kinase activity assay, wild-type BTK (Nanosyn)
BTK [4] = biological target: T1, BTK; experiment: Mechanism validation: pretreatment with ibrutinib, thalidomide-OH or bortezomib before PROTAC in Mino cells; assay type: cell-based; parameters: endogenous in cells; host or cells: Mino (ATCC CRL-3000), Ramos (ATCC CRL-1596), K562 (NCI-60)

T1 sequence (Q06187 whole entry): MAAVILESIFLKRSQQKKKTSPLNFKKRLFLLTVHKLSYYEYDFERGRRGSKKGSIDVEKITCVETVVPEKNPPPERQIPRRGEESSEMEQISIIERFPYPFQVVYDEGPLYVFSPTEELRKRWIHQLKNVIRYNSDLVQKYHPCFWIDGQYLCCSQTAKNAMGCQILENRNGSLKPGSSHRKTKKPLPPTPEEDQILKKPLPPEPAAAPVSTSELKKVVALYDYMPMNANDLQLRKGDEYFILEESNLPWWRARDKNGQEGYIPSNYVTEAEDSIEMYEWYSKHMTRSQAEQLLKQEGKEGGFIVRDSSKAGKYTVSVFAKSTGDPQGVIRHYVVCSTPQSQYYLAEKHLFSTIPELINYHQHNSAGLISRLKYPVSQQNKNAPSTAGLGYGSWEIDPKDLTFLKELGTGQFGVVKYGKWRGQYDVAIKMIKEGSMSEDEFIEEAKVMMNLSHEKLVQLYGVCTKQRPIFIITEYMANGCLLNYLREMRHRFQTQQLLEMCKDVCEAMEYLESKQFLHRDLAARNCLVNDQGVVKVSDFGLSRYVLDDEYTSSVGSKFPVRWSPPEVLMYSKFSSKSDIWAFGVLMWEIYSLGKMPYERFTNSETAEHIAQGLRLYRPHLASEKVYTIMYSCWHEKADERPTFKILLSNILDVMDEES
Chain of wild-type BTK (Q06187 whole entry, species assumed): as the sequence (Q06187 whole entry) above

In the case of `N#CC(=CCOCCOCCOCCOCCOCCOc1cccc2c1C(=O)N(C1CCC(=O)NC1=O)C2=O)C(=O)N1CCCC(n2nc(-c3ccc(Oc4ccccc4)cc3)c3c(N)ncnc32)C1` (stereo not drawn) [RC-1], the “BTK degradation (abundance of BTK by Western blot)” value (BTK [1]) is reported as “consistent prominent levels of degradation in both cell lines”, the “time to degrade BTK / reach maximum degradation” value (BTK [2]) is reported as 6 to 24 h and the Dmax (BTK [3]) is reported as 68%. The IC50 (wild-type BTK) was 12 nM.

For `CC(C)C[C@H](NC(=O)[C@H](Cc1ccccc1)NC(=O)c1cnccn1)B(O)O` [bortezomib], the “effect of proteasome inhibitor on PROTAC-mediated BTK degradation” value (BTK [4]; 1 h bortezomib, then PROTAC 4 h) was “significantly inhibited degradation”.

In the case of `O=C1CCC(N2C(=O)c3cccc(O)c3C2=O)C(=O)N1` (stereo not drawn) [thalidomide-OH], the “effect of pretreatment on PROTAC-mediated BTK degradation” value (BTK [4]; 2 h pretreatment, then PROTAC 24 h) is reported as “hindered BTK degradation”.
